Measured values from patent US20240390335A1, “PHARMACEUTICAL COMPOSITION CONTAINING BETA-LACTAM COMPOUND AND USE THEREOF” (priority 2021, published 2024).
Converted amounts (≈) assume the structure as drawn.

Assays:
[1] = test system: Enterobacter cloacae; experiment: MIC assay of individual compounds (microdilution, CLSI/NCCLS); format: cell-based; details: individual compound
Method: (§1) Mueller-Hinton broth (MH broth) medium, Trypticase Soy Broth (TSB Broth) medium, purchased from BD Difco, Cockeysville, MD, USA; • 96-well plate: Corning Costar, Cambridge, MA, USA; • Test method: the antibacterial activities were tested by the microdilution method according to the CLSI/NCCLS standard.
(§2) (1) Preparation of the test samples: 4 mg of each sample was taken, and was prepared into a test solution at 1,024 μg/mL with MH broth, and the test solution was diluted two-fold in a 96-well plate to prepare solutions of a series of gradient concentrations, the volume in each well being 90 μL.
(§3) (2) Preparation of a bacteria solution: The test strains were amplified by Trypticase Soy Broth (TSB Broth) according to the CLSI/NCCLS standard.
(§4) (3) Addition of the samples: a bacteria solution with a concentration of 6×10^5 cfu/mL was prepared, and 10 μL of the bacteria solution was pipetted into each well of the 96-well plate. Three parallel experiments were set up for each concentration and the results were averaged. To the negative control group, 10 μL of the bacterial solution and 90 μL MH broth were added.
(§5) (4) Incubation: the 96-well plate was placed in a 37° C. constant-temperature incubator for 18 hours, and the growth of the strains was observed. The drug concentration in the well with no microbial growth was recorded as the MIC.

[2] = test system: Escherichia coli; experiment: as above; format: cell-based; details: individual compound
Method: as §1, §2, §3, §4, §5

[3] = test system: Klebsiella pneumoniae; experiment: as above; format: cell-based; details: individual compound
Method: as §1, §2, §3, §4, §5

[4] = test system: Enterobacter cloacae; experiment: Combined in vitro use, checkerboard dilution method; format: cell-based; details: compound of formula (I-1) combined with avibactam; Enterobacter cloacae ATCC 2468
Method: (§6) Mueller-Hinton broth (MH broth) medium, Trypticase Soy Broth (TSB Broth) medium, purchased from BD Difco, Cockeysville, MD, USA; • 96-well plate: Corning Costar, Cambridge, MA, USA; • Test method: the checkerboard dilution method was used for determination.
(§7) (1) Preparation of the test samples: 4 mg of each sample was taken and was prepared into a test solution at 2,048 μg/mL with MH broth, and the test solution was diluted two-fold in a 96-well plate to prepare solutions of a series of gradient concentrations.
as §3
(§8) (3) Addition of the samples: 10 μL of the bacteria solution with a concentration of 6×10^5 CFU/mL was pipetted into each well of the 96-well plate. Each well contained the antibacterial drugs (the compound of formula (I-1) and the compound of formula (I-2)) diluted two-fold with broth and the aforementioned lactamase inhibitor or efflux pump inhibitor. […] The samples were mixed thoroughly. Three parallel experiments were set up for each concentration and the results were averaged. To the negative control group, 10 μL of the bacterial solution and 90 μL MH broth were added.
(§9) (4) Incubation: the 96-well plate was placed in a 37° C. constant-temperature incubator for 18 hours, and the growth of the strains was observed.
(§10) (5) Calculation: The in vitro effect of each drug-inhibitor combination was analyzed by calculating the FICI value: FICI=(MIC of drug A in the combination/MIC of drug A alone)+ (MIC of drug B in the combination/MIC of drug B alone).
(§11) In order to ensure the reliability of the data, three repeated tests were conducted on different dates and the results were averaged.

[5] = test system: Escherichia coli; experiment: as above; format: cell-based; details: compound of formula (I-1) combined with avibactam
Method: as §6, §7, §3, §8, §9, §10, §11

[6] = test system: Klebsiella pneumoniae; experiment: as above; format: cell-based
Method: as §6, §7, §3, §8, §9, §10, §11

[7] = test system: drug-resistant Enterobacteriaceae; experiment: MIC assay of individual compounds, summary over Enterobacteriaceae strains; format: cell-based; details: against the aforementioned Enterobacteriaceae
Method: as §1, §2, §3, §4, §5

[8] = test system: Klebsiella pneumoniae ATCC BAA2146 (NDM-1); details: avibactam itself; stated as well known to those skilled in the art; cited from earlier work
[9] = Escherichia coli CCPM(A)-P-071301

NC(=O)[C@@H]1CC[C@@H]2CN1C(=O)N2OS(=O)(=O)O [Avibactam, avibactam]
MIC ([1]; Enterobacter cloacae ATCC 2468): 32 µg/mL (≈ 121 µM)
MIC ([1]; Enterobacter cloacae CCPM(A)-P-111719): 32 µg/mL (≈ 121 µM)
MIC ([2]; Escherichia coli ATCC 2469): 16 µg/mL (≈ 60.3 µM)
MIC [2, 9]: 16 µg/mL (≈ 60.3 µM)
MIC ([3]; Klebsiella pneumoniae ATCC 2146): 8 µg/mL (≈ 30.2 µM)
MIC ([3]; Klebsiella pneumoniae ATCC 700603): 16 µg/mL (≈ 60.3 µM)
MIC ([3]; Klebsiella pneumoniae CCPM(A)-0814R18): 16 µg/mL (≈ 60.3 µM)
MIC ([3]; Klebsiella pneumoniae CCPM(A)-0814R33): 16 µg/mL (≈ 60.3 µM)
MIC ([3]; Klebsiella pneumoniae CCPM(A)-0817R61): 32 µg/mL (≈ 121 µM)
MIC ([3]; Klebsiella pneumoniae CCPM(A)-081301): 32 µg/mL (≈ 121 µM)
MIC ([3]; Klebsiella pneumoniae CCPM(A)-081705): 16 µg/mL (≈ 60.3 µM)
MIC ([3]; Klebsiella pneumoniae CCPM(A)-081715): 32 µg/mL (≈ 121 µM)
MIC ([3]; Klebsiella pneumoniae CCPM(A)-081716): 16 µg/mL (≈ 60.3 µM)
MIC ([3]; Klebsiella pneumoniae CCPM(A)-081729): 32 µg/mL (≈ 121 µM)
MIC in combination [4]: 4 µg/mL
MIC in combination ([5]; Escherichia coli ATCC 2469): 1 µg/mL
MIC in combination [5, 9]: 1 µg/mL
MIC in combination ([6]; compound of formula (I-1) combined with avibactam, Klebsiella pneumoniae ATCC 2146): 2 µg/mL
MIC in combination ([6]; compound of formula (I-1) combined with avibactam, Klebsiella pneumoniae ATCC 700603): 0.5 µg/mL
MIC in combination ([6]; compound of formula (I-1) combined with avibactam, Klebsiella pneumoniae CCPM(A)-0814R18): 0.5 µg/mL
MIC in combination ([6]; compound of formula (I-1) combined with avibactam, Klebsiella pneumoniae CCPM(A)-0814R33): 2 µg/mL
MIC in combination ([6]; compound of formula (I-1) combined with avibactam, Klebsiella pneumoniae CCPM(A)-0817R61): 0.5 µg/mL
MIC in combination ([6]; compound of formula (I-1) combined with avibactam, Klebsiella pneumoniae CCPM(A)-081705): 8 µg/mL
MIC in combination ([6]; compound of formula (I-1) combined with avibactam, Klebsiella pneumoniae CCPM(A)-081715): 0.5 µg/mL
MIC in combination ([6]; compound of formula (I-1) combined with avibactam, Klebsiella pneumoniae CCPM(A)-081716): 8 µg/mL
MIC in combination ([6]; compound of formula (I-1) combined with avibactam, Klebsiella pneumoniae CCPM(A)-081729): 8 µg/mL
MIC in combination ([6]; compound of formula (I-2) combined with avibactam, Klebsiella pneumoniae ATCC 2146): 0.5 µg/mL
MIC in combination ([6]; compound of formula (I-2) combined with avibactam, Klebsiella pneumoniae ATCC 700603): 0.5 µg/mL
MIC in combination ([6]; compound of formula (I-2) combined with avibactam, Klebsiella pneumoniae CCPM(A)-081715): 4 µg/mL
MIC in combination ([6]; compound of formula (I-2) combined with avibactam, Klebsiella pneumoniae CCPM(A)-081729): 4 µg/mL
activity of the inhibitor itself [7]: relatively weak activities
in vivo antibacterial effect on the test strain [8]: no in vivo antibacterial effect
